Results on 19 compounds are retold here after patent US9278942B2, “Non-steroidal compounds as androgen receptor modulators” (FLX Discoveries Oy, priority 2011, dated 2016).

Assay [1] addresses T1, human AR (Homo sapiens, UniProt P10275).
T1 construct: expressed in transfected cells; host or cells: COS-1
T1 sequence (P10275 1-920): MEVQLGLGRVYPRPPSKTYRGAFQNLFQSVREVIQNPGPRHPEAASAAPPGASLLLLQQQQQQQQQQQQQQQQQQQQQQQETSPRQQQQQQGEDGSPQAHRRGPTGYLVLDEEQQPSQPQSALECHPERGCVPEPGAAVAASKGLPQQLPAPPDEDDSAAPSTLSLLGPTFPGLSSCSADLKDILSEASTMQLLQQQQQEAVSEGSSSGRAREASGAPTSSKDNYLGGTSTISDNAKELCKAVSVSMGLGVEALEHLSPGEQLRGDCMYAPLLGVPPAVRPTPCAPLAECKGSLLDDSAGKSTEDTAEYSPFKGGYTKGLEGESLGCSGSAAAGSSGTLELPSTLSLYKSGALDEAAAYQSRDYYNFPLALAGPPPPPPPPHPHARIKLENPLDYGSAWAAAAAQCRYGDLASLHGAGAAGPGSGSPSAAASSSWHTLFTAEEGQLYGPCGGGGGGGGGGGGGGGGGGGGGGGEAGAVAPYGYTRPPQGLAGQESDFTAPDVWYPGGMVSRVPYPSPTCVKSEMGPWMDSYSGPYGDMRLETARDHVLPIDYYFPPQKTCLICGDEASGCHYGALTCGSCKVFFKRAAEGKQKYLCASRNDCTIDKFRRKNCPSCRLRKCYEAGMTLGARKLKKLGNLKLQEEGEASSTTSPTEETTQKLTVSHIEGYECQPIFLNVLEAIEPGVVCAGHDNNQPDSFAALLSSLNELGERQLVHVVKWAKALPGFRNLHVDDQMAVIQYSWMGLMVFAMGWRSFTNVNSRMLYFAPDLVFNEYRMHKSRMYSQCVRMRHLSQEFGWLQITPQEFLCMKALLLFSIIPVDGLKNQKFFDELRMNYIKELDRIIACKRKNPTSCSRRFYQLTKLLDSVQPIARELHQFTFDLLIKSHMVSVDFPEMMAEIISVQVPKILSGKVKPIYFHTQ
Kind of assay: AR antagonism assay: inhibition of transcriptional activation of AR (Probasin-luc reporter, COS-1 cells). Type of assay: cell-based. Conditions: compound 10.0 μM, relative luciferase response: 100% for testosterone (no antiandrogenic effect), 0% for complete antagonism; for remaining activity at 10 µM: COS-1, 18 h, read-out: AR antagonism against 100 nM testosterone ± S.D. Here is the method:
Determination of the Antiandrogen Activity.
Testosterone was bought from Sigma Chemical Co. (St. Louis, Mo.) and hydroxyflutamide from Chemos GmbH. One day before transfection, COS-1 cells (from ATCC) were seeded into 1 ml of DMEM (Dulbecco's modified Eagle medium, Gibco) with 10% dextran-charcoal-treated fetal bovine serum and 0.25% (vol/vol) Penicillin-Streptomycin (Euroclone) at a density of 70×10^3 cells/well. After medium change to DMEM 2.5% FBS, the cells were transfected for 24 hours with 10 ng/well of human AR expression vector pSG5-hAR, 100 ng/well of reporter plasmid Probasin-luc, and 10 ng/well of control plasmid pCMV-β-gal by using the TransIT method (Micrus Bio TransIT LT1, Transfection Reagent). After the transfection, the cells received treatment of test compounds giving final concentration of 10 μM for each compound. In the antagonist test the wells were also treated with 100 nM final concentration of testosterone. After 18 hours, the cells were washed, lysed and assayed for luciferase and normalization for β-galactosidase activities and protein concentrations. The cells were washed with 100 μl of cold phosphate buffered saline (PBS) and lysed with 35 μl 1× Reporter lysis Buffer (Promega) and frozen (−70° C.) for 30 minutes. Cell lysates were placed in 1.5-ml propylene tubes and centrifuged at 13200×g for 5 minutes at room temperature. For β-galactosidase assay 10 μl of supernatant from each cell extract was transferred to a 96-well plate (96 well Elisa Microplates, PS, Microcon) and incubated for 10 minutes at 37° C. with 65 μl of reaction mixture consisting 0.76 μl 100×Mg-buffer, 12.5 μl ONPG (4 mg/ml), and 54.3 μl of sodium-phosphate buffer (pH 7). The reaction was stopped with treatment of 125 μl Na2CO3. For luciferase assay 10 μl of the supernatant was transferred to a 96-well plate (Greiner Microlon lumitrac 200) and treated with 30 μl of luciferase assay substrate solution (Promega Luciferase Assay System E1501). For the study of protein concentrations 5 μl of the supernatant was transferred to a 96-well plate (Elisa Microplates, PS, Microcon) and mixed with 200 μl of Bio-rad protein assay reagent. The luciferase activities were measured with Thermo Luminoscan Ascent scanner and the protein concentrations and β-galactosidase activities with Thermo Labsystem Multiscan Ex scanner. Also blank and control samples were measured. During the maintenance, transfection, and treatment with tested compounds the cells were incubated in humidified atmosphere with 5% carbon dioxide at 37° C.

Assay [2] concerns the target T1, human AR. Kind of assay: Competitive AR binding assay against [3H]-R1881 in transiently transfected COS-1 cells. Conditions: compound 13.4 μM, [3H]-R1881 1.34 nM, complete inhibition equals 100%; for inhibition at 13.4 µM: read-out: Inhibition of [3H]-R1881 binding at 1.34 nM ± S.D. The gist of the method: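 COS-1 cells transfected 24 h with human AR vector, then after 36 h exposed 2 h at 37° C to compound at 10000-fold molar excess over 1.34 nM [3H]-R1881. Cell-bound radioactivity counted in triplicate; result given as % inhibition of labelled R1881 binding.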

Like-named read-outs stand apart in the source and are kept apart here.

Consider `Fc1ccc(C2=NOC3CCCCCC23)c(C(F)(F)F)c1` (stereo not shown) [Example 40b, 3-(4-Fluoro-2-trifluoromethyl-phenyl)-4,5,6,7,8,8a-hexahydro-3aH-cyclohepta[d]isoxazole], for which the “AR antagonism against 100 nM testosterone ± S.D.” value (“AR antagonism” below) on human AR [1] amounted to 15.6 ± 0.8%. The “Inhibition of [3H]-R1881 binding at 1.34 nM ± S.D.” value (shortened to “Inhibition of [3H]-R1881 binding”) on human AR [2] (Table 2) is on record as 92.2 ± 0.7%.
In general, inhibition refers to the share of the control response that was lost under treatment. In the case of `O=[N+]([O-])c1ccc(C2=NOC3CCCCCC23)cc1C(F)(F)F` (stereo not shown) [Example 41ab, 3-(4-Nitro-3-trifluoromethyl-phenyl)-4,5,6,7,8,8a-hexahydro-3aH-cyclohepta[d]isoxazole], at human AR [1], the remaining activity at 10 µM was determined as 10.1 ± 0.9%. Further, the inhibition at 13.4 µM on human AR [2] (Table 2) worked out at 97.8 ± 0.5%.
In the case of `O=[N+]([O-])c1ccc(C2=NOC3CCCCCC23)c(C(F)(F)F)c1` (stereo not shown) [Example 42a, 3-(4-Nitro-2-trifluoromethyl-phenyl)-4,5,6,7,8,8a-hexahydro-3aH-cyclohepta[d]isoxazole], at human AR [1], the remaining activity at 10 µM came to 17.4 ± 1.5%. The inhibition at 13.4 µM at human AR [2] (Table 2) was 90.5 ± 3.1%; at human AR [2] (Table 3), 91.4 ± 3.8%.
Consider `O=[N+]([O-])c1ccc(C2=NOC3CCCCCC23)c(C(F)(F)F)c1` (stereo not shown) [Example 42b, 3-(4-Nitro-2-trifluoromethyl-phenyl)-4,5,6,7,8,8a-hexahydro-3aH-cyclohepta[d]isoxazole], for which the “AR antagonism” value at human AR [1] is 25.5 ± 1.5%. Also, the “Inhibition of [3H]-R1881 binding” value at human AR [2] (Table 2) worked out at 89.5 ± 2.0%; at human AR [2] (Table 3) it was 89.3 ± 4.8%.
`Fc1ccc(C2=NOC3CCCCCCC23)cc1C(F)(F)F` (stereo not shown) [Example 43a, 3-(4-Fluoro-3-trifluoromethyl-phenyl)-3a,4,5,6,7,8,9,9a-octahydro-cycloocta[d]isoxazole]: the remaining activity at 10 µM on human AR [1] worked out at 57.7 ± 9.9%. At human AR [2] (Table 2), the “Inhibition of [3H]-R1881 binding” value is recorded as 66.3 ± 9.8%.
With `Fc1ccc(C2=NOC3CCCCCCC23)cc1C(F)(F)F` (stereo not shown) [Example 43b, 3-(4-Fluoro-3-trifluoromethyl-phenyl)-3a,4,5,6,7,8,9,9a-octahydro-cycloocta[d]isoxazole], on human AR [1], the “AR antagonism” value was 56.6 ± 1.4%. Also, the inhibition at 13.4 µM on human AR [2] (Table 2) worked out at 76 ± 0.3%.
Consider `Fc1ccc(C2=NOC3CCCCCCC23)c(C(F)(F)F)c1` (stereo not shown) [Example 44a, 3-(4-Fluoro-2-trifluoromethyl-phenyl)-3a,4,5,6,7,8,9,9a-octahydro-cycloocta[d]isoxazole], for which the remaining activity at 10 µM on human AR [1] was found to be 19.8 ± 0.5%. The inhibition at 13.4 µM on human AR [2] (Table 3) was determined as 90.3 ± 2.7%.
Consider `Fc1ccc(C2=NOC3CCCCCCC23)c(C(F)(F)F)c1` (stereo not shown) [Example 44b, 3-(4-Fluoro-2-trifluoromethyl-phenyl)-3a,4,5,6,7,8,9,9a-octahydro-cycloocta[d]isoxazole], for which the “AR antagonism” value at human AR [1] worked out at 35.6 ± 7.8%. Also, the “Inhibition of [3H]-R1881 binding” value at human AR [2] (Table 3) is listed as 85.2 ± 3.8%.
Consider `O=[N+]([O-])c1ccc(C2=NOC3CCCCCCC23)cc1C(F)(F)F` (stereo not shown) [Example 45ab, 3-(4-Nitro-3-trifluoromethyl-phenyl)-3a,4,5,6,7,8,9,9a-octahydro-cycloocta[d]isoxazole], for which the remaining activity at 10 µM at human AR [1] is 27.8 ± 1%. Also, the inhibition at 13.4 µM at human AR [2] (Table 3) stood at 85.7 ± 3.8%.
On to `O=[N+]([O-])c1ccc(C2=NOC3CCCCCCC23)c(C(F)(F)F)c1` (stereo not shown) [Example 46a, 3-(4-Nitro-2-trifluoromethyl-phenyl)-3a,4,5,6,7,8,9,9a-octahydro-cycloocta[d]isoxazole], for which the remaining activity at 10 µM at human AR [1] turned out to be 3.1 ± 1.7%. In addition, on human AR [2] (Table 3), the inhibition at 13.4 µM was 86.4 ± 1.8%.
In the case of `O=[N+]([O-])c1ccc(C2=NOC3CCCCCCC23)c(C(F)(F)F)c1` (stereo not shown) [Example 46b, 3-(4-Nitro-2-trifluoromethyl-phenyl)-3a,4,5,6,7,8,9,9a-octahydro-cycloocta[d]isoxazole], the “AR antagonism” value at human AR [1] came to 2.2 ± 0.8%. Further, the “Inhibition of [3H]-R1881 binding” value at human AR [2] (Table 3) was found to be 90.4 ± 3.8%.
Take `N#Cc1ccc(C2=NOC3CCCC23)c(C(F)(F)F)c1` (stereo not shown) [Example 86ab, 4-(4,5,6,6a-Tetrahydro-3aH-cyclopenta[d]isoxazol-3-yl)-3-trifluoromethyl-benzonitrile]: the remaining activity at 10 µM on human AR [1] was found to be 29.3 ± 3.7%. For the same compound, the inhibition at 13.4 µM on human AR [2] (Table 3) was 91.7 ± 1.7%.
With `N#Cc1ccc(C2=NOC3CCCCC23)cc1C(F)(F)F` (stereo not shown) [Example 88ab, 4-(3a,4,5,6,7,7a-Hexahydro-benzo[d]isoxazol-3-yl)-2-trifluoromethyl benzonitrile], on human AR [1], the “AR antagonism” value is 9.2 ± 1.7%. Moreover, on human AR [2] (Table 2), the inhibition at 13.4 µM turned out to be 99.2 ± 0.5%.
Take `N#Cc1ccc(C2=NOC3CCCCC23)c(C(F)(F)F)c1` (stereo not shown) [Example 89a, 4-(3a,4,5,6,7,7a-Hexahydro-benzo[d]isoxazol-3-yl)-3-trifluoromethyl benzonitrile]: the remaining activity at 10 µM at human AR [1] amounted to 27.5 ± 4.1%. For the same compound, the inhibition at 13.4 µM on human AR [2] (Table 2) was 78.8 ± 0.6%.
On to `N#Cc1ccc(C2=NOC3CCCCC23)c(C(F)(F)F)c1` (stereo not shown) [Example 89b, 4-(3a,4,5,6,7,7a-Hexahydro-benzo[d]isoxazol-3-yl)-3-trifluoromethyl benzonitrile], for which the “AR antagonism” value on human AR [1] was 20.3 ± 1.7%. Moreover, the “Inhibition of [3H]-R1881 binding” value on human AR [2] (Table 2) is on record as 83.6 ± 0.9%.
As to `N#Cc1ccc(C2=NOC3CCCCCC23)cc1C(F)(F)F` (stereo not shown) [Example 90ab, 4-(4,5,6,7,8,8a-Hexahydro-3aH-cyclohepta[d]isoxazol-3-yl)-2-trifluoromethyl-benzonitrile], the remaining activity at 10 µM on human AR [1] was found to be 12.6 ± 0.7%. Further, on human AR [2] (Table 2), the inhibition at 13.4 µM is 98.7 ± 0.6%.
The matching figures for `N#Cc1ccc(C2=NOC3CCCCCC23)c(C(F)(F)F)c1` (stereo not shown) [Example 91a, 4-(4,5,6,7,8,8a-Hexahydro-3aH-cyclohepta[d]isoxazol-3-yl)-3-trifluoromethyl benzonitrile]: 29.8 ± 3.6% and 85.4 ± 1.5%.
In the case of `N#Cc1ccc(C2=NOC3CCCCCC23)c(C(F)(F)F)c1` (stereo not shown) [Example 91b, 4-(4,5,6,7,8,8a-Hexahydro-3aH-cyclohepta[d]isoxazol-3-yl)-3-trifluoromethyl benzonitrile], at human AR [1], the “AR antagonism” value amounted to 27.2 ± 4.8%. For the same compound, at human AR [2] (Table 2), the “Inhibition of [3H]-R1881 binding” value stood at 87.4 ± 2.7%.
Take `N#Cc1ccc(C2=NOC3CCCCCCC23)cc1C(F)(F)F` (stereo not shown) [Example 92ab, 4-(3a,4,5,6,7,8,9,9a-Octahydro-cycloocta[d]isoxazol-3-yl)-2-trifluoromethyl-benzonitrile]: the remaining activity at 10 µM at human AR [1] is 24 ± 1.7%. For the same compound, on human AR [2] (Table 2), the inhibition at 13.4 µM turned out to be 85.8 ± 1.3%.
